# Results from ChEMBL document CHEMBL4219060, “Discovery of EBI-1051: A novel and orally efficacious MEK inhibitor with benzofuran scaffold” (Bioorg Med Chem, 2018).
# Activity calls are given as the source filed them. The rule behind the calls is not given here.
# Tests used:
# COLO 205 [1] = experiment: Antiproliferative activity against human COLO205 cells harboring BRAF mutant/wild type KRAS/wild type PIK3CA after 72 hrs by CCK8 assay; details: COLO 205, 72 h
# MDA-MB-231 = experiment: Antiproliferative activity against human MDA-MB-231 cells harboring KRAS mutant/wild type BRAF/PIK3CA after 72 hrs by CCK8 assay; type: functional, cell-based
# Mus musculus = experiment: Toxicity in athymic nude mouse xenografted with human COLO205 cells assessed as body weight loss at 10 mg/kg, po qd for 14 days measured twice per week during compound dosing; type: organism-based; details: in vivo, 336 h
# A549 = experiment: Antiproliferative activity against human A549 cells harboring KRAS mutant/wild type BRAF/PIK3CA after 72 hrs by CCK8 assay; type: functional, cell-based
# COLO 205 [2] = experiment: Antitumor activity against human COLO205 cells xenografted in athymic nude mouse assessed as tumor growth inhibition at 10 mg/kg, po qd for 14 days measured twice per week during compound dosing relative to control; details: COLO 205, po, 336 h, read-out: TGI
# [3] = Half life in Sprague-Dawley rat at 10 mg/kg, po via gavage; type: ADME, organism-based; details: in vivo
# [4] = Volume of distribution at steady state in Sprague-Dawley rat at 2 mg/kg, iv; type: ADME, organism-based; details: in vivo, read-out: Vdss
# [5] = AUC (0 to t) in Sprague-Dawley rat at 10 mg/kg, po via gavage; type: ADME, organism-based; details: in vivo
# [6] = Oral bioavailability in Sprague-Dawley rat at 10 mg/kg via gavage; type: ADME, organism-based; details: in vivo
# [7] = Clearance in Sprague-Dawley rat at 2 mg/kg, iv; type: ADME, organism-based; details: in vivo
# [8] = Cmax in Sprague-Dawley rat at 10 mg/kg, po via gavage; type: ADME, organism-based; parameters: dose 10 mg/kg, route oral; details: in vivo
# HT-29 = experiment: Antiproliferative activity against human HT-29 cells harboring BRAF mutant/PIK3CA mutant/wild type KRAS after 72 hrs by CCK8 assay; type: functional, cell-based
# SW480 = experiment: Antiproliferative activity against human SW480 cells harboring KRAS mutant/wild type BRAF/PIK3CA after 72 hrs by CCK8 assay; type: functional, cell-based
# Calu-6 = experiment: Antiproliferative activity against human Calu6 cells harboring KRAS mutant/wild type BRAF/PIK3CA after 72 hrs by CCK8 assay; type: functional, cell-based
# NCI-H1299 = experiment: Antiproliferative activity against human NCI-H1299 cells harboring wild type BRAF/KRAS/PIK3CA after 72 hrs by CCK8 assay; type: functional, cell-based
# U-937 = experiment: Antiproliferative activity against human U937 cells harboring wild type BRAF/KRAS/PIK3CA after 72 hrs by CCK8 assay; type: functional, cell-based
# DLD-1 = experiment: Antiproliferative activity against human DLD1 cells harboring KRAS mutant/wild type BRAF/PIK3CA D549N mutant after 72 hrs by CCK8 assay; type: functional, cell-based
# HeLa = experiment: Antiproliferative activity against human HeLa cells harboring wild type BRAF/KRAS/PIK3CA after 72 hrs by CCK8 assay; type: functional, cell-based
# [9] = target: Dual specificity mitogen-activated protein kinase kinase 1 (Homo sapiens, UniProt Q02750)
# Dual specificity mitogen-activated protein kinase kinase 1, sequence (Q02750 whole entry): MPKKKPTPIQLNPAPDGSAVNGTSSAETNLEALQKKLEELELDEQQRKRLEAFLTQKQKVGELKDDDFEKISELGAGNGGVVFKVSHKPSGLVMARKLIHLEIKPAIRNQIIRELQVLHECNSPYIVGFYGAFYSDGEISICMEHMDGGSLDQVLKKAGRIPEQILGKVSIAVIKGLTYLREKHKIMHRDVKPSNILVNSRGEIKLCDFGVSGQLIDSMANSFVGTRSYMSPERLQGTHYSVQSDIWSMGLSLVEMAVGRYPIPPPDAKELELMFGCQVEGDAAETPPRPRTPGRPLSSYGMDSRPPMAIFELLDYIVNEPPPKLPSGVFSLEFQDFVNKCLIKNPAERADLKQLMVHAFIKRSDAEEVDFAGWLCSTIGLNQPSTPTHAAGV
# Description: Inhibition of MEK1 (unknown origin) using Ser/Thr 03 peptide substrate after 4 hrs by fluorescence assay
structure (smiles),measurement,setting,value
O=C(NOCCO)c1cc2c(cc1Nc1ccc(I)cc1F)OCC2,IC50,COLO 205 [1],> 1000 nM
Cn1cnc2c(F)c(Nc3ccc(Br)cc3Cl)c(C(=O)NOCCO)cc21 [SELUMETINIB],Activity,MDA-MB-231,inactive
same,IC50,COLO 205 [1],59 nM
same,Activity,Mus musculus,Non-Toxic
same,Activity,A549,inactive
same,inhibition in vivo at 10 mg/kg,COLO 205 [2],60%
O=C(NOCCO)c1cc2c(c(F)c1Nc1ccc(Br)cc1Cl)OCC2,IC50,COLO 205 [1],> 1000 nM
O=C(NOC[C@H](O)CO)c1cc2c(c(F)c1Nc1ccc(I)cc1F)OCC2,half-life,[3],2 h
same,Vd,[4],9.4 L/kg
same,AUC(0-t),[5],1470 ng·h/mL
same,bioavailability,[6],62%
same,IC50,COLO 205 [1],7.2 nM
same,clearance,[7],73.6 mL/min/kg
same,Cmax,[8],342 ng/mL
O=C(NOCCO)c1cc2c(c(Cl)c1Nc1ccc(I)cc1F)OCC2,IC50,COLO 205 [1],38.4 nM
O=C(NOC(CO)CO)c1cc2ccoc2c(F)c1Nc1ccc(I)cc1F,Activity,MDA-MB-231,Active
same,half-life,[3],2.5 h
same,Vd,[4],0.8 L/kg
same,AUC(0-t),[5],43300 ng·h/mL
same,Activity,HT-29,Active
same,Activity,SW480,Active
same,Activity,Calu-6,Active
same,bioavailability,[6],80%
same,IC50,COLO 205 [1],4.7 nM
same,Activity,NCI-H1299,inactive
same,clearance,[7],3.4 mL/min/kg
same,Activity,Mus musculus,Non-Toxic
same,Activity,A549,Active
same,Activity,U-937,inactive
same,inhibition in vivo at 10 mg/kg,COLO 205 [2],78%
same,Activity,DLD-1,Active
same,Activity,HeLa,inactive
same,Cmax,[8],13600 ng/mL
O=C(NOCCCO)c1cc2ccoc2c(F)c1Nc1ccc(I)cc1F,IC50,COLO 205 [1],76.5 nM
O=C(NOCCO)c1cc2ccoc2c(F)c1Nc1ccc(I)cc1F,half-life,[3],1.7 h
same,AUC(0-t),[5],8370 ng·h/mL
same,IC50,COLO 205 [1],2.9 nM
same,Cmax,[8],2080 ng/mL
O=C(NC[C@@H](O)CO)c1cc2c(c(F)c1Nc1ccc(I)cc1F)OCC2,IC50,[9],> 1000 nM
O=C(NOCCO)c1cc2c(c(F)c1Nc1ccc(I)cc1F)OCC2,IC50,COLO 205 [1],10 nM
O=C(NOC[C@@H](O)CO)c1cc2c(c(F)c1Nc1ccc(I)cc1F)OCC2,IC50,COLO 205 [1],90.1 nM
O=C(c1cc2c(c(F)c1Nc1ccc(I)cc1F)OCC2)N1C[C@@H](O)CO1,IC50,COLO 205 [1],> 1000 nM
same,IC50,[9],> 1000 nM
O=C(NC[C@H](O)CO)c1cc2c(c(F)c1Nc1ccc(I)cc1F)OCC2,IC50,[9],> 1000 nM
O=C(NOC[C@H](O)CO)c1cc2ccoc2c(F)c1Nc1ccc(I)cc1F,half-life,[3],3.4 h
same,AUC(0-t),[5],2860 ng·h/mL
same,IC50,COLO 205 [1],2.5 nM
same,Cmax,[8],695 ng/mL
CC(C)(CO)ONC(=O)c1cc2ccoc2c(F)c1Nc1ccc(I)cc1F,IC50,COLO 205 [1],12 nM
